In ChEMBL document CHEMBL1208782, “Synthesis and pharmacological validation of a novel series of non-steroidal FXR agonists” (Bioorg Med Chem Lett, 2010):

Assays:
Assay type in all cases: functional, cell-based
[1] = target: T1, Mineralocorticoid receptor (Homo sapiens) (UniProt P08235); experiment: Agonist activity at mineralocorticoid receptor-LBD expressed in HEK293 cells assessed as Gal4-DBD interaction by cellular mammalian one hybrid assay relative to mineralocorticoid
T1 sequence (whole entry): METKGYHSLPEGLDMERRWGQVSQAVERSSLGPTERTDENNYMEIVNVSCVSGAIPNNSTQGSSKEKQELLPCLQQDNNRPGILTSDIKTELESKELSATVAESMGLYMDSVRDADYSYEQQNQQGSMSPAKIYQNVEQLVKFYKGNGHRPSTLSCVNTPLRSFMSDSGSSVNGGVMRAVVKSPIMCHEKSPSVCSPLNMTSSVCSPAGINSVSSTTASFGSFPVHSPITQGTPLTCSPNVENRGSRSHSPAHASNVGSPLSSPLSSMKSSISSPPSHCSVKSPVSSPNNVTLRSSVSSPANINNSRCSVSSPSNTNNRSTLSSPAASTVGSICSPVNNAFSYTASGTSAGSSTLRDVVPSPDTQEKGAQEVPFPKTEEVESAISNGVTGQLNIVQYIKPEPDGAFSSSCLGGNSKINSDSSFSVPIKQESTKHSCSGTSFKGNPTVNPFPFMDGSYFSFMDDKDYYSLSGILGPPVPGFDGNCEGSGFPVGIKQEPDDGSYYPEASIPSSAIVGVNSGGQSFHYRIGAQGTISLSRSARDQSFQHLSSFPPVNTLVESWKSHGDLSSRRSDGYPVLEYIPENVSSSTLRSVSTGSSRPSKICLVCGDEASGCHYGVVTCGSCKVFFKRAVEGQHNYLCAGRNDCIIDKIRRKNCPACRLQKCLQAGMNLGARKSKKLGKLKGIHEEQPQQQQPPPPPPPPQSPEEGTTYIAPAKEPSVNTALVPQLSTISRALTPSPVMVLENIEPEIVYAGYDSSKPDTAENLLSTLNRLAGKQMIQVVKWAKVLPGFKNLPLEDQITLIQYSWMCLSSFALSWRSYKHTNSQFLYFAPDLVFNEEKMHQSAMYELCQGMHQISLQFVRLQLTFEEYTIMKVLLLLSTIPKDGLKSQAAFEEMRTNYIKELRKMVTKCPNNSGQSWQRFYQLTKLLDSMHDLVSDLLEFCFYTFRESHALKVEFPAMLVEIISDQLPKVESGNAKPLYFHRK

[2] = target: T2, Peroxisome proliferator-activated receptor alpha (Homo sapiens) (UniProt Q07869); experiment: Agonist activity at PPARalpha-LBD expressed in HEK293 cells assessed as Gal4-DBD interaction by cellular mammalian one hybrid assay relative to GW-7467
T2 sequence (whole entry): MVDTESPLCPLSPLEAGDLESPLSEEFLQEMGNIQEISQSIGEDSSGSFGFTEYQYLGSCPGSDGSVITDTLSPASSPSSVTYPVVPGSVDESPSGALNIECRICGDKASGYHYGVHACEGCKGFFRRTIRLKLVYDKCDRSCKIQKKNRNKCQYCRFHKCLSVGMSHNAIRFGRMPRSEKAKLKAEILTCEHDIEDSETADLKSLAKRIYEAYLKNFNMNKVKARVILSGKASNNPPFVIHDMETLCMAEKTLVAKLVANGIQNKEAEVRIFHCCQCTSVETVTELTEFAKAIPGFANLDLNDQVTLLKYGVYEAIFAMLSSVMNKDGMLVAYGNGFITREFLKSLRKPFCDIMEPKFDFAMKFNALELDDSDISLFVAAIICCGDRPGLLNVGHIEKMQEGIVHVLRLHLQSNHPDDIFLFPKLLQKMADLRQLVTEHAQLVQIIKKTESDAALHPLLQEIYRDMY

[3] = target: T3, Retinoic acid receptor beta (Homo sapiens) (UniProt P10826); experiment: Agonist activity at RARbeta-LBD expressed in HEK293 cells assessed as Gal4-DBD interaction by cellular mammalian one hybrid assay relative to retinoic acid
T3 sequence (whole entry): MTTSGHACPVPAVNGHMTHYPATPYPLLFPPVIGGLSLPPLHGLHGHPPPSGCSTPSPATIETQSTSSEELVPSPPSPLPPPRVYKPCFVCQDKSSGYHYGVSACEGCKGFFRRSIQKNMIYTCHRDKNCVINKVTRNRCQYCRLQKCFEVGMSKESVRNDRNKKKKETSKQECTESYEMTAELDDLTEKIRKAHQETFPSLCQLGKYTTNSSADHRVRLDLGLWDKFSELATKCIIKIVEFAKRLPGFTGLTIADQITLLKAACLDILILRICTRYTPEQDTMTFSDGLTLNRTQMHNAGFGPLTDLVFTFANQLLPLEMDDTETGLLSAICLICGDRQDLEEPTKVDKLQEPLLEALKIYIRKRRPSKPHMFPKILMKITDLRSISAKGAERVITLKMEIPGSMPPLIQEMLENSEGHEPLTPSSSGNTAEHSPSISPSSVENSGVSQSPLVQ

[4] = target: T4, Vitamin D3 receptor (Homo sapiens) (UniProt P11473); experiment: Agonist activity at VDR-LBD expressed in HEK293 cells assessed as Gal4-DBD interaction by cellular mammalian one hybrid assay relative to vitamin D
T4 sequence (whole entry): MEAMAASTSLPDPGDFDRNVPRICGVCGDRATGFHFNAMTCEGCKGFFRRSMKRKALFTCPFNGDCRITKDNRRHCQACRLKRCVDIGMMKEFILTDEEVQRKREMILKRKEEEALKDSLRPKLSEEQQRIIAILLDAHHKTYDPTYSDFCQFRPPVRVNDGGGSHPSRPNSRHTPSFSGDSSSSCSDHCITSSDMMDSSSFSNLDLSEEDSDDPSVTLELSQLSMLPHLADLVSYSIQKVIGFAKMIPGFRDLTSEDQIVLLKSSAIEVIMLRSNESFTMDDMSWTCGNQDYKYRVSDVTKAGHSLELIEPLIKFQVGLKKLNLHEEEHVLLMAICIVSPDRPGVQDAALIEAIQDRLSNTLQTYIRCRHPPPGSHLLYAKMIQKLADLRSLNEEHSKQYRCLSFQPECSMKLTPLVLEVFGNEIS

| Efficacy [1] [%] | Efficacy [2] [%] | Efficacy [3] [%] | Efficacy [4] [%] | Compound |
| --- | --- | --- | --- | --- |
| 0 | 0 | 0 | 0 | CN(Cc1ccc(C(=O)O)cc1)c1ccc(OCc2c(-c3c(Cl)cccc3Cl)noc2C2CC2)nc1C(F)(F)F |
| 0 | 0 | 0 | 0 | CC(C)c1onc(-c2c(Cl)cccc2Cl)c1COc1ccc(N(C)Cc2ccc(C(=O)O)cc2)c(C(F)(F)F)n1 |
| 0 | 15 | 0 | 0 | CN(Cc1cccc(C(=O)O)c1)c1ccc(OCc2c(-c3c(Cl)cccc3Cl)noc2C2CC2)nc1C(F)(F)F |
